How the values were obtained:
[1] = system: Aspergillus fumigatus clinical isolate 117; assay: Antifungal susceptibility testing (MEC, CLSI M38-A2); assay type: cell-based; conditions: clinical isolate 117, fks1 WT
Description: (§1) Minimum effective concentrations (MECs) for A. fumigatus strains were determined according to CLSI document M38-A2 ([48]) and defined as the lowest drug concentration that led to the growth of small, rounded, compact hyphal forms compared to the hyphal growth seen in the drug-free growth control wells. The following drugs (supplier) were tested: caspofungin (Merck & Co., Inc.), micafungin (Astellas Pharma US, Inc.), anidulafungin (Pfizer Inc.), itraconazole (Sigma-Aldrich), voriconazole (Pfizer Inc.), and amphotericin B (Sigma-Aldrich). In addition, rezafungin and ibrexafungerp were obtained from Cidara Therapeutics and Scynexis Inc., respectively.

[2] = system: Aspergillus fumigatus clinical isolate 2770; assay: as above; assay type: cell-based; conditions: clinical isolate 2770, fks1 WT
Description: as §1

[3] = system: Aspergillus fumigatus clinical isolate 32315; assay: as above; assay type: cell-based; conditions: clinical isolate 32315, fks1 WT
Description: as §1

[4] = system: Aspergillus fumigatus clinical isolate 32458; assay: as above; assay type: cell-based; conditions: clinical isolate 32458, fks1 WT
Description: as §1

[5] = system: Aspergillus fumigatus clinical isolate 68284B; assay: as above; assay type: cell-based; conditions: fks1 WT
Description: as §1

A. fumigatus RG101 [6] = assay type: cell-based, Aspergillus fumigatus
Description: The following drugs (supplier) were tested: caspofungin (Merck & Co., Inc.), micafungin (Astellas Pharma US, Inc.), anidulafungin (Pfizer Inc.), itraconazole (Sigma-Aldrich), voriconazole (Pfizer Inc.), and amphotericin B (Sigma-Aldrich). In addition, rezafungin and ibrexafungerp were obtained from Cidara Therapeutics and Scynexis Inc., respectively.

A. fumigatus RG101 [7] = assay: Acute pulmonary aspergillosis model in neutropenic DBA/2 mice, lung fungal burden by qPCR; assay type: in vivo, Aspergillus fumigatus
Description: Resistance of RG101 to CAS in vivo was tested in an acute pulmonary aspergillosis model. Thirty inbred DBA/2 mice were rendered neutropenic and infected with 1 × 10^6 RG101 conidia intratracheally. The mice were then treated with CAS (5 mg/kg of body weight), MFG (5 mg/kg), or vehicle daily for 5 days, and lung burdens were determined using quantitative PCR (qPCR). Details of the experiment are provided in Text S1 in the supplemental material.
All animal experiments performed were approved by the Rutgers University Institutional Animal Care and Use Committee. Thirty female DBA/2 mice [The Jackson Laboratory, Bar Harbor, ME] were used in the experiment. The mice were housed in cages equipped with HEPA filters and were allowed free access to food and water. To establish neutropenia, mice were immunosuppressed with cyclophosphamide on days -4 (150 mg/kg), -1 and +2 (100 mg/kg) intraperitoneally (ip) and hydrocortisone on day -1 (200 mg/kg) via subcutaneous injection (sc). The animals were given prophylaxis sc ceftazidime (50 mg/kg) on all days to prevent secondary bacterial infections. A. fumigatus RG101 was streaked out from a frozen glycerol stock and cultured on Potato dextrose agar (PDA) slant for 2 days. The spores were harvested in phosphate-buffered saline (PBS) with 0.05% (v/v) Tween 20 and counted in a hemocytometer. The mice were briefly anesthetized IP Ketamine (65 mg/kg)/Xylazine (5 mg/kg) and infected with 1×10^6 spores of RG101 in 25 µL volume via intratracheal instillation. The 30 RG101 infected mice were randomized into following treatment arms for IP treatment: vehicle, CAS (5 mg/kg), and MFG (5 mg/kg). The first treatment was given at 3 h post infection (PI) and continued daily treatments were administered. On day 5 PI, mice were humanely euthanized via CO2 narcosis. Lungs were excised and homogenized in 1 ml of sterile PBS using a 2 ml tube containing ceramic spheres by MP Biomedicals (116913500). Tissue was then homogenized in 20 s bursts in a mini bead beater (MP FastPrep-24) followed by cooling on ice. DNA was then isolated from an aliquot of the lung homogenate (100 μl) using the QIAamp DNA Mini Kit by Qiagen (51304) and analyzed by real-time quantitative PCR (qPCR) using primers specific for A. fumigatus 18S rRNA genes (Wiederhold et al 2004).

[8] = target: β-(1,3)-D-glucan synthase of RG101 (Aspergillus fumigatus, UniProt Q4WLT4); assay: Glucan synthase kinetic inhibition assay, enzyme from RG101; assay type: biochemical
Chain of β-(1,3)-D-glucan synthase of RG101 (Q4WLT4 1-1904): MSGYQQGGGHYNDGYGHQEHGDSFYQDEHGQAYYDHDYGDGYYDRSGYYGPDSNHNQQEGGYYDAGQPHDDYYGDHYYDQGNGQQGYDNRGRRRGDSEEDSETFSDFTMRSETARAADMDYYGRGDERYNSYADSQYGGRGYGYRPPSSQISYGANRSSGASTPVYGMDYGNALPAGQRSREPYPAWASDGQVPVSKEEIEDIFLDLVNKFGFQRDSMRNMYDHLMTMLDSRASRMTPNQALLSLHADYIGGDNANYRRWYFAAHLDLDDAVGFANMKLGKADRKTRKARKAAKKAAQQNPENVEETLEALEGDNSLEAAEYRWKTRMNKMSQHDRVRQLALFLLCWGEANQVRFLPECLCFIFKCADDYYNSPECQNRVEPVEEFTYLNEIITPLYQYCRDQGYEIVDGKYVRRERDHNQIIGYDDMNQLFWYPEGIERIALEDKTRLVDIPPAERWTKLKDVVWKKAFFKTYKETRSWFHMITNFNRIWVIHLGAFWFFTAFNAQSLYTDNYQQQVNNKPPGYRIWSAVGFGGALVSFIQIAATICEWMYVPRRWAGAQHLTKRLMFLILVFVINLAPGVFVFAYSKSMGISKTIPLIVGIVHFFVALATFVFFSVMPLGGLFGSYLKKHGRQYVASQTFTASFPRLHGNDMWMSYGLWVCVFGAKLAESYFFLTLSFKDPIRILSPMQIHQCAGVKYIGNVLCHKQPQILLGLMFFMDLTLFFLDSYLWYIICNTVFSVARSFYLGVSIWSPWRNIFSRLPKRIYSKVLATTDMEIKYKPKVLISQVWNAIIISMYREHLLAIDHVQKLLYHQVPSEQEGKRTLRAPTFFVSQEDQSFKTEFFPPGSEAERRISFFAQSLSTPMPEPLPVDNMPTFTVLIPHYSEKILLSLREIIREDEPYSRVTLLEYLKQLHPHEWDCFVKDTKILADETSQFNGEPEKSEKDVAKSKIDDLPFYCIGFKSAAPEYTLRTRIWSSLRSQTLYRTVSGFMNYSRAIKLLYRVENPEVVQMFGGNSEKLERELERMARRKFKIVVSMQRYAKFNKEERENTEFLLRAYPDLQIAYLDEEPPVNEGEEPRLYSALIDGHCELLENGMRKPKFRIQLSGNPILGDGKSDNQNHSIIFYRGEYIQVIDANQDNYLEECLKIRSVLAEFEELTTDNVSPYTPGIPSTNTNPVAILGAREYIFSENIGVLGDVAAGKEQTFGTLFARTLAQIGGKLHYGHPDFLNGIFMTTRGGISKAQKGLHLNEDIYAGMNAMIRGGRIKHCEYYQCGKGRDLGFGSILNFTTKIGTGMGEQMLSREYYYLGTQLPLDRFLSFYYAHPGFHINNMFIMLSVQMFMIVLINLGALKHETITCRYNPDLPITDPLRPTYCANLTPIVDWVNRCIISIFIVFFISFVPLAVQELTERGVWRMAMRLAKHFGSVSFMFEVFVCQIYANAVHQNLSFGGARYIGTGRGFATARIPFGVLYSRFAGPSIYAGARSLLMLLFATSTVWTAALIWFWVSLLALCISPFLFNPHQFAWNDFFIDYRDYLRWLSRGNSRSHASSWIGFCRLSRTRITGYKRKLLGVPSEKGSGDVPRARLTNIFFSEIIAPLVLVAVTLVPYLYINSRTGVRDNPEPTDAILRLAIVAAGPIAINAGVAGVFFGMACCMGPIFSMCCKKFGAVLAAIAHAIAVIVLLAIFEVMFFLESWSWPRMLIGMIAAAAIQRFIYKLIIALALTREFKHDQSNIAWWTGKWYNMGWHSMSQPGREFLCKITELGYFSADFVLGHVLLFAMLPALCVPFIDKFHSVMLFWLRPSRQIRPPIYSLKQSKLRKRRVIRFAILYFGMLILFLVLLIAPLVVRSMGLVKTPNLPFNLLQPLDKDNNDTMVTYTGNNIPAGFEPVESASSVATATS
Description: ATCC 13073 or RG101 was grown in liquid YPD medium at 37°C for 16 h. Partially purified glucan synthase was isolated by the product entrapment method, as previously described ([21]). Sensitivity to echinocandin drugs was measured by glucan synthase assay, using a 96-well multiscreen high-throughput screen filtration system (Millipore Corporation, Bedford, MA) in a final volume of 100 μl. Inhibition of the enzyme by the drug was analyzed after incubation of the enzyme with a radioactive substrate over a broad range of concentrations (0 to 10,000 ng/ml) of echinocandins for 1 h at room temperature. Radioactivity from the enzyme product, β-(1,3)-D-glucan, was measured. Inhibition profiles were determined using a sigmoidal response curve fitting algorithm with GraphPad Prism software (v 7.04).
To study the effect of lipids on the enzyme, dihydrosphingosine, phytosphingosine, or phytoceramide C2 (Sigma-Aldrich D6783, P2795, and C8105, respectively) was added directly to the assay mixture and coincubated with an echinocandin for 1 h at room temperature.

[9] = target: β-(1,3)-D-glucan synthase of clinical isolate 117 (Aspergillus fumigatus, UniProt Q4WLT4); assay: Glucan synthase kinetic inhibition assay, enzyme from clinical isolate 117; assay type: biochemical; conditions: enzyme from isolate 117 grown at 4 μg/ml CAS
Chain of β-(1,3)-D-glucan synthase of clinical isolate 117 (Q4WLT4 1-1904): as above

[10] = system: reactive oxygen species (ROS) in A. fumigatus ATCC 13073; assay: ROS production, DCFDA fluorescence assay; assay type: cell-based, Aspergillus fumigatus; conditions: 1 μg/ml, 1 h exposure, compared with other echinocandins
Description: (§2) ROS production in mycelia was measured using a protocol previously described by Blatzer et al. ([51]) with a few changes. Suspensions of 10^4 spores/ml of ATCC 13073 and RG101 were grown in static culture in complete supplement mixture (CSM) medium for 16 h in a 96-well microplate at 37°C. After incubation, the mycelia were washed once with CSM, 10 μM 2′,7′–dichlorofluorescin diacetate (DCFDA) dye was added, and cells were incubated in the dark at 37°C for 30 min. Cells were then washed three times with phosphate-buffered saline (PBS), and a final concentration of 1 μg/ml of each echinocandin in CSM medium was added to different wells. Fluorescence intensity (excitation at 485 nm and emission at 530 nm) was measured for 1 h in a microplate reader (Tecan Infinite M200 Pro). Mycelia stained with DCFDA without any drug were used as a control.

[11] = system: reactive oxygen species (ROS) in A. fumigatus RG101; assay: ROS production, DCFDA fluorescence assay; assay type: cell-based, Aspergillus fumigatus; conditions: 1 μg/ml, 1 h exposure, DCFDA, compared with other echinocandins
Description: as §2

SMILES: CC[C@H](C)C[C@H](C)CCCCCCCCC(=O)N[C@H]1C[C@@H](O)[C@@H](NCCN)NC(=O)[C@@H]2[C@@H](O)CCN2C(=O)[C@H]([C@H](O)CCN)NC(=O)[C@H]([C@H](O)[C@@H](O)c2ccc(O)cc2)NC(=O)[C@@H]2C[C@@H](O)CN2C(=O)[C@H]([C@@H](C)O)NC1=O [CAS, caspofungin]
- MEC (minimum effective concentration) [1]: 16 µg/mL
- MEC (minimum effective concentration) [2]: 16 µg/mL
- MEC (minimum effective concentration) [3]: 16 µg/mL
- MEC (minimum effective concentration) [4]: 16 µg/mL
- MEC (minimum effective concentration) [5]: 4 µg/mL
- Breakthrough growth concentrations, RG101 (A. fumigatus RG101 [6]; 24 h): 0.5 to 8 µg/mL
- MEC 2 (rosettes form again), RG101 (A. fumigatus RG101 [6]; 24 h): 16 µg/mL
- Susceptibility phenotype of RG101 (A. fumigatus RG101 [6]; 24 h): resistant
- Growth phenotype of RG101 at 30 h (A. fumigatus RG101 [6]; 30 h, all concentrations tested (0.25 to 8 μg/ml)): full breakthrough
- Decrease in lung burden versus vehicle-treated group (A. fumigatus RG101 [7]; RG101, 5 mg/kg daily for 5 days): No significant differences
- Average fungal lung burden (A. fumigatus RG101 [7]; RG101 intratracheal, 5 mg/kg daily IP for 5 days, qPCR): 22.6 ng fungal DNA per lung
- Loss of sensitivity (IC50 shift) of glucan synthase from RG101 grown with CAS versus without ([8]; RG101 grown in presence vs absence of CAS): 4 log orders
- IC50 ([8]; enzyme from RG101 grown at 4 μg/ml CAS): > 9.15 µM
- IC50 [9]: > 9.15 µM
- ROS levels induced in ATCC 13073 [10]: highest levels
- ROS levels induced in RG101 [11]: highest levels

— PMC6550521, “Stress-Induced Changes in the Lipid Microenvironment of β-(1,3)-D-Glucan Synthase Cause Clinically Important Echinocandin Resistance in Aspergillus fumigatus” (mBio, 2019)
